Where “and” joins values, the source holds several entries; their conditions need not be identical. Equal entries are not always repeated. Inconclusive results and toxic doses are left out. Rule as the data show it: active = T/C of 150% or more; inactive = T/C below 125%.
Test system: L1210 leukemia ip in BDF1 mice, survival T/C
Test: NCI In Vivo Anticancer Drug Screen. Data for tumor model L1210 Leukemia (intraperitoneal) in B6D2F1 (BDF1) mice
Settings: endpoint: mean survival time, higher = longer survival
In short: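 In this screen, tumor-bearing mice given compound are compared to those given vehicle, and their survival values are reported as a treated-to-control quotient.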

[1] = dose: 1.56 mg/kg/injection, schedule: Q04DX003 (ip), vehicle: saline
[2] = dose: 50.0 mg/kg/injection, schedule: Q01DX001 (ip), vehicle: carboxymethylcellulose (CMC)
[3] = dose: 100.0 mg/kg/injection, schedule: Q01DX001 (ip), vehicle: saline
[4] = dose: 200.0 mg/kg/injection, schedule: Q01DX001 (ip), vehicle: saline
[5] = dose: 400.0 mg/kg/injection, schedule: Q01DX001 (ip), vehicle: saline

Measured: T/C

COc1ccc(Nc2ccnc3cc(Cl)ccc23)cc1CN(CCCl)CCCl
inactive: dose: 0.78 mg/kg/injection, schedule: Q01DX009 (ip), vehicle: saline 115 % of control | dose: 1.1 mg/kg/injection, schedule: Q01DX Z (ip), vehicle: methylcellulose (MC) 110 % of control | dose: 1.25 mg/kg/injection, schedule: Q01DX009 (ip), vehicle: Klucel (hydroxypropylcellulose) (HPC) 110 % of control | dose: 1.56 mg/kg/injection, schedule: Q01DX009 (ip), vehicle: saline 109 % of control | [1] 108 % of control | dose: 1.6 mg/kg/injection, schedule: Q01DX Z (ip), vehicle: methylcellulose (MC) 106 % of control and 118 % of control | dose: 2.4 mg/kg/injection, schedule: Q01DX Z (ip), vehicle: methylcellulose (MC) 117 % of control and 124 % of control | dose: 2.5 mg/kg/injection, schedule: Q01DX001 (ip), vehicle: Klucel (hydroxypropylcellulose) (HPC) 108 % of control | dose: 2.5 mg/kg/injection, schedule: Q01DX009 (ip), vehicle: Klucel (hydroxypropylcellulose) (HPC) 112 % of control | dose: 2.5 mg/kg/injection, schedule: Q04DX003 (ip), vehicle: Klucel (hydroxypropylcellulose) (HPC) 105 % of control | dose: 3.13 mg/kg/injection, schedule: Q01DX009 (ip), vehicle: saline 86 % of control | dose: 3.13 mg/kg/injection, schedule: Q04DX003 (ip), vehicle: saline 106 % of control | dose: 3.6 mg/kg/injection, schedule: Q01DX Z (ip), vehicle: methylcellulose (MC) 110 % of control and 112 % of control | dose: 5.0 mg/kg/injection, schedule: Q01DX001 (ip), vehicle: Klucel (hydroxypropylcellulose) (HPC) 107 % of control | dose: 5.0 mg/kg/injection, schedule: Q04DX003 (ip), vehicle: Klucel (hydroxypropylcellulose) (HPC) 106 % of control | dose: 10.0 mg/kg/injection, schedule: Q01DX001 (ip), vehicle: Klucel (hydroxypropylcellulose) (HPC) 103 % of control | dose: 10.0 mg/kg/injection, schedule: Q04DX003 (ip), vehicle: Klucel (hydroxypropylcellulose) (HPC) 105 % of control | [2] 106 % of control

C=CCOc1ccc(Cl)cc1
inactive: dose: 100.0 mg/kg/injection, schedule: Q04DX003 (ip), vehicle: saline with Tween-80 90 % of control | dose: 200.0 mg/kg/injection, schedule: Q04DX003 (ip), vehicle: saline with Tween-80 94 % of control

CC(CCl)N(CCCl)Cc1cccc(Nc2ncnc3nc[nH]c23)c1 (stereo not drawn)
inactive: dose: 1.1 mg/kg/injection, schedule: Q01DX015 (ip), vehicle: saline 122 % of control | dose: 1.8 mg/kg/injection, schedule: Q01DX015 (ip), vehicle: saline 112 % of control | dose: 3.0 mg/kg/injection, schedule: Q01DX015 (ip), vehicle: saline 109 % of control | dose: 4.4 mg/kg/injection, schedule: Q01DX001 (ip), vehicle: saline 120 % of control | dose: 5.0 mg/kg/injection, schedule: Q01DX001 (ip), vehicle: saline 121 % of control | dose: 5.0 mg/kg/injection, schedule: Q01DX015 (ip), vehicle: saline 102 % of control | dose: 6.6 mg/kg/injection, schedule: Q01DX001 (ip), vehicle: saline 120 % of control | dose: 20.0 mg/kg/injection, schedule: Q01DX001 (ip), vehicle: saline 117 % of control

ClC1=C(Cl)C(Cl)(Cl)SC1(Cl)Cl
inactive: dose: 3.12 mg/kg/injection, schedule: Q01DX009 (ip), vehicle: acetone 90 % of control | dose: 6.25 mg/kg/injection, schedule: Q01DX009 (ip), vehicle: acetone 101 % of control | dose: 12.5 mg/kg/injection, schedule: Q01DX001 (ip), vehicle: acetone 99 % of control | dose: 12.5 mg/kg/injection, schedule: Q01DX009 (ip), vehicle: acetone 96 % of control | dose: 12.5 mg/kg/injection, schedule: Q04DX003 (ip), vehicle: acetone 92 % of control | dose: 25.0 mg/kg/injection, schedule: Q01DX001 (ip), vehicle: acetone 100 % of control | dose: 50.0 mg/kg/injection, schedule: Q01DX001 (ip), vehicle: acetone 99 % of control

CC(C)=CCCC(C)CCOc1cccc(C)c1 (stereo not drawn)
inactive: dose: 100.0 mg/kg/injection, schedule: Q04DX002 (ip), vehicle: saline with Tween-80 105 % of control | dose: 200.0 mg/kg/injection, schedule: Q04DX002 (ip), vehicle: saline with Tween-80 99 % of control | dose: 400.0 mg/kg/injection, schedule: Q04DX002 (ip), vehicle: saline with Tween-80 89 % of control

CCOC(CCc1c(-c2ccccc2)nc(N)[nH]c1=O)OCC
inactive: dose: 100.0 mg/kg/injection, schedule: Q01DX009 (ip), vehicle: other 110 % of control | dose: 200.0 mg/kg/injection, schedule: Q01DX009 (ip), vehicle: other 102 % of control | dose: 400.0 mg/kg/injection, schedule: Q01DX009 (ip), vehicle: other 93 % of control

COc1ccc(C)cc1NC(C)=O
inactive: [3] 98 % of control | [4] 100 % of control | [5] 98 % of control

O=C1OCCOC1=O
inactive: dose: 75.0 mg/kg/injection, schedule: Q01DX001 (ip), vehicle: other 90 % of control | dose: 150.0 mg/kg/injection, schedule: Q01DX001 (ip), vehicle: other 95 % of control | dose: 300.0 mg/kg/injection, schedule: Q01DX001 (ip), vehicle: other 95 % of control

Cc1ccccc1NP1(=O)OCCCN1Cc1ccccc1Cl (stereo not drawn)
inactive: [2] 104 % of control | dose: 100.0 mg/kg/injection, schedule: Q01DX001 (ip), vehicle: carboxymethylcellulose (CMC) 96 % of control | dose: 200.0 mg/kg/injection, schedule: Q01DX001 (ip), vehicle: carboxymethylcellulose (CMC) 98 % of control | dose: 400.0 mg/kg/injection, schedule: Q01DX001 (ip), vehicle: carboxymethylcellulose (CMC) 95 % of control

CCCCCc1nc2c(c(=O)n(C)c(=O)n2C)n1C
inactive: dose: 50.0 mg/kg/injection, schedule: Q01DX001 (ip), vehicle: saline 112 % of control | [3] 100 % of control | [4] 102 % of control | [5] 106 % of control

Cc1ccc([I+]c2ccc(C)cc2C)c(C)c1
inactive: dose: 0.25 mg/kg/injection, schedule: Q01DX015 (ip), vehicle: saline 96 % of control | dose: 0.5 mg/kg/injection, schedule: Q01DX015 (ip), vehicle: saline 96 % of control | dose: 1.0 mg/kg/injection, schedule: Q01DX015 (ip), vehicle: saline 97 % of control | dose: 1.56 mg/kg/injection, schedule: Q01DX009 (ip), vehicle: saline with Tween-80 112 % of control | [1] 95 % of control | dose: 2.0 mg/kg/injection, schedule: Q01DX015 (ip), vehicle: saline 97 % of control | dose: 3.12 mg/kg/injection, schedule: Q01DX009 (ip), vehicle: saline with Tween-80 119 % of control | dose: 3.12 mg/kg/injection, schedule: Q04DX003 (ip), vehicle: saline 91 % of control | dose: 6.25 mg/kg/injection, schedule: Q01DX009 (ip), vehicle: saline with Tween-80 110 % of control | dose: 6.25 mg/kg/injection, schedule: Q04DX003 (ip), vehicle: saline 95 % of control | dose: 12.5 mg/kg/injection, schedule: Q01DX001 (ip), vehicle: saline 94 % of control | dose: 25.0 mg/kg/injection, schedule: Q01DX001 (ip), vehicle: saline 100 % of control

C=C(C)COc1c(C)c(C)c(OS(=O)(=O)c2ccc(Br)cc2)c(C)c1C
inactive: dose: 100.0 mg/kg/injection, schedule: Q01DX001 (ip), vehicle: Klucel (hydroxypropylcellulose) (HPC) 97 % of control | dose: 200.0 mg/kg/injection, schedule: Q01DX001 (ip), vehicle: Klucel (hydroxypropylcellulose) (HPC) 89 % of control | dose: 400.0 mg/kg/injection, schedule: Q01DX001 (ip), vehicle: Klucel (hydroxypropylcellulose) (HPC) 100 % of control

CNS(=O)(=O)c1ccccc1C(=N)c1ccccc1
inactive: [3] 97 % of control | [4] 97 % of control | [5] 100 % of control
